In patent US12365670B2, “GLP-IR agonists and uses thereof” (QILU REGOR THERAPEUTICS INC., priority 2018, dated 2025):
Blank lines part the entries; values can stand above or below the compound they belong to.

How the values were obtained:
Format in all cases: cell-based
GLP1R [1] = target: T1, GLP1R (Homo sapiens, UniProt P43220); test: GLP-1R/β-Arrestin recruitment assay (PathHunter eXpress GLP1R CHO-K1 β-Arrestin GPCR Assay); design: host or cells: PathHunter CHO-K1 GLP1R β-Arrestin cells (from the kit); conditions: averaged Bmax, Percentage of Control GLP-1 (7-37), top concentration 10 μM
T1 sequence (P43220 24-463): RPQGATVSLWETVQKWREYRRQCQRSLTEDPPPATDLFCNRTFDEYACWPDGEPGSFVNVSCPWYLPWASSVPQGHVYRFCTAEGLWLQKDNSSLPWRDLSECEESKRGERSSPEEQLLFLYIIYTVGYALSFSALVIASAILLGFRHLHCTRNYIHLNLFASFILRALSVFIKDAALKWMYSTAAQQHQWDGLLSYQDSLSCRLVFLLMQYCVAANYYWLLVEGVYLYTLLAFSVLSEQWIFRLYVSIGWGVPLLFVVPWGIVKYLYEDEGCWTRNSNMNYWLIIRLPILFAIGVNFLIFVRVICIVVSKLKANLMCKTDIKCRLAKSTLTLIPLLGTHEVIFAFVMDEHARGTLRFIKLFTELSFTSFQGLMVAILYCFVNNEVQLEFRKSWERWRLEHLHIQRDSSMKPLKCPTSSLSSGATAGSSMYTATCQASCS
Text: GLP-1R agonist activity with respect to β-arrestin recruitment can be determined with a cell-based functional assay using PathHunter eXpress GLP1R CHO-K1 β-Arrestin GPCR Assay kit (DiscoverX Cat #93-0300E2CPOM).
The PathHunter β-Arrestin GPCR assay technology utilizes a β-galactosidase ([…]) enzyme that is split into two fragments, the smaller Enzyme Donor (ED) and the larger Enzyme Acceptor (EA). These fragments can be fused to two proteins that may interact with each other, such as EA-β-Arrestin and ED-GLP-1R. The fusions can be stably expressed in a test cell line, such as the PathHunter CHO-K1 GLP1R β-Arrestin cells described below. […]
In this experiment, PathHunter CHO-K1 GLP1R β-Arrestin cells from the assay kit were plated at a density of 1000 or 2000 cells/[…]/well in a 384-well white/clear bottom plates (Greiner Cat #781098). […] Cells were stored in a 37° C. incubator under 5% CO2 and kept for approximately 48 hours until ready to run the assay. […]
Following 90 min incubation, detection reagents were made up by combining 1 part Galacton Star Substrate with 5 parts Emerald II™ Solution, and 19 parts of PathHunter Cell Assay Buffer, respectively. […] Plates were then read on Envision for 0.1 sec/well.
EC50 determinations were made from agonist dose-response curves analyzed with a curve fitting program using a 4-parameter logistic dose response equation. […]

GLP1R [2] = target: T1, GLP1R; test: GLP1R cAMP HTRF assay, HEK293/GLP-1R/CRE/Luc (HEK293T cells); conditions: concentration yielding 50% of the maximum cAMP level of the same compound
Description: GLP-1R-mediated agonist activity was determined with a cell-based functional assay utilizing an HTRF (Homogeneous Time-Resolved Fluorescence) cAMP detection kit (cAMP Dynamic 2 Assay Kit; CisBio cat #62AM4PEC) that measures cAMP levels in the cell. The method is a competitive immunoassay between native cAMP produced by the cells and exogenous cAMP labeled with the dye d2. The tracer binding is visualized by a mAb anti-cAMP labeled with Cryptate. The specific signal (i.e., energy transfer) is inversely proportional to the concentration of cAMP in either standard or experimental sample.
A cell line stably expressing the receptor was isolated. […]
IBMX and BSA were freshly added on the day of assay]. A 10 μL sample of the cell suspension was counted on an Invitrogen Countess II to determine cell viability and cell count per mL. […]
Following the 30 minute incubation, 5 μL of labeled d2 cAMP and 5 μL of anti-cAMP antibody (both diluted 1:20 in cell lysis buffer; as described in the manufacturer's assay protocol) were added to each well of the assay plate. […] Raw data were converted to nM cAMP by interpolation from a cAMP standard curve (as described in the manufacturer's assay protocol) and the percent effect was determined relative to a saturating concentration of the full agonist GLP-17-37 (10 nM) included on each plate. […]

GLP1R [3] = target: T1, GLP1R; test: β-Arrestin-mediated GLP1R internalization assay (PathHunter engineered U2OS cells); design: host or cells: PathHunter engineered U2OS cells; conditions: averaged Bmax, Percentage of Control GLP-1 (7-37), top concentration 10 μM
Text: A similar assay can also be used to assess the extent of signal attenuation due to GLP-1R internalization (the β-Arrestin Internalization Assay). In this assay, activated GLP1R Internalization cells were engineered to co-express an untagged GLP1R, Enzyme Acceptor (EA) tagged β-Arrestin, and a ProLink™ (PK) tag localized to the endosomes. Activation of the GLP1R induces β-Arrestin recruitment, which leads to internalization of the Receptor/Arrestin-EA complex in PK-tagged endosomes. This forces complementation of the two β-galactosidase enzyme fragments (EA and PK) to form a functional enzyme that hydrolyzes substrate to generate a chemiluminescent signal. […]
Specifically, PathHunter engineered U2OS cells from the assay kit (Cat #93-0724E3CP0L) were plated at a density of 2000 cells/20 μL/well in a 384-well white/clear bottom plates (Greiner Cat #781098). […] Cells were stored in a 37° C. incubator and kept for approximately 48 hours until ready for the assay. […]
Following 180 min incubation, detection reagents were made up by combining 1 part Galacton Star Substrate with 5 parts Emerald II™ Solution, and 19 parts of PathHunter Cell Assay Buffer, respectively. […] Plates were then read on Envision for 0.1 sec/well.
EC50 determinations were made from agonist dose-response curves analyzed with a curve fitting program using a 4-parameter logistic dose response equation.

- Bmax (POC) (GLP1R [1]): 2.80 POC
Compound: O=C(O)c1ccc2nc(CN3CCN(c4cccc(NCc5ccc(Cl)cc5F)n4)CC3)n(C[C@@H]3CCO3)c2c1 [Compound 1, (S)-2-((4-(6-(4-chloro-2-fluorobenzylamino)pyridin-2-yl)piperazin-1-yl)methyl)-1-(oxetan-2-ylmethyl)-1 h-benzo[d]imidazole-6-carboxylic acid]

- EC50 (GLP1R [2]): ≤ 150 nM
Compound: N#Cc1ccc(COc2cc(F)cc(C3=CCN(Cc4nc5ccc(C(=O)O)cc5n4C[C@@H]4CCO4)CC3)c2)c(F)c1 [Compound 218, (S)-2-((4-(3-((4-cyano-2-fluorobenzyl)oxy)-5-fluorophenyl)-5,6-dihydropyridin-1(2H)-yl)methyl)-1-(oxetan-2-ylmethyl)-1H-benzo[d]imidazole-6-carboxylic acid]

- Bmax (POC) (GLP1R [3]): 30.0 POC
Compound: O=C(O)c1ccc2nc(CN3CC=C(c4ccc(F)c(OCc5ccc(Cl)cc5F)c4)CC3)n(C[C@@H]3CCO3)c2n1 [Compound 236, (S)-2-((4-(3-((4-chloro-2-fluorobenzyl)oxy)-4-fluorophenyl)-5,6-dihydropyridin-1(2H)-yl)methyl)-3-(oxetan-2-ylmethyl)-3H-imidazo[4,5-b]pyridine-5-carboxylic acid]
